The NIST ThermoML archive (doi:10.1021/je800505y)
Numbers after ± are expanded uncertainties.

Conditions: Liquid, Ebulliometric method (Recirculating still)

Compound | vapor or sublimation pressure (253.15 K) | vapor or sublimation pressure (263.15 K) | vapor or sublimation pressure (278.15 K) | vapor or sublimation pressure (292.92 K)
CCF [fluoroethane] | 214 ± 10 kPa | 311 ± 10 kPa | 517 ± 10 kPa | 802 ± 10 kPa
FCC(F)(F)F [1,1,1,2-tetrafluoroethane] | 131 ± 10 kPa | 203 ± 10 kPa | 353 ± 10 kPa | 571 ± 10 kPa
